Assay results as given in patent US20250129329A1, “CULTURE MEDIUM FOR HEPATOMA ORGANOID CULTURE, HEPATOMA ORGANOID CULTURE METHOD, AND APPLICATION THEREOF” (PRECEDO PHARMACEUTICALS CO., LTD, priority 2021, published 2025).

What was measured:
Format in all cases: cell-based, human
[1] = test system: hepatoma organoids (sample GL-006); assay: Drug screening on hepatoma organoids, CellTiter-Glo viability and microscopy (Example 5); settings: for growth of organoids after drug treatment (photos): after 5 days of drug treatment, microscope photos, FIG. 5A; for inhibitory effect on the growth of hepatoma organoids (drug inhibition rate): two concentrations (1 and 0.1 mM stocks diluted 1000 times), 5 days, CellTiter-Glo, FIG. 5B
Protocol: Primary liver cancer cells were isolated from liver cancer intraoperative sample (GL-006) according to the method described in Section (2), Example 1, and were cultured to obtain organoids by using HC-3 culture medium until the diameters of hepatoma organoids exceeded 50 μm, which were then used for drug screening.
Prepare Three drugs with two concentration gradients were prepared according to the table below (Bortezomib, Aclarubicin, and Doxorubicin; all purchased from MCE) and store for use.
The prepared drugs were taken out and placed at room temperature. The drugs were diluted 1000 times with HC-3 culture medium for later use. The organoids cultured and obtained according to step (1) were taken out from the incubator, the culture mediums were removed from the wells, and the culture mediums containing drugs were slowly added into the wells along the well wall. After the addition of drug, disinfect the surface of the 96-well plate was sterilized and then was transferred to the incubator for further cultivation. After 5 days, the viability of organoids were measured.
CellTiter-Glo luminescent reagent (purchased from Promega) was taken out from a 4° C. refrigerator, and 10 mL of the reagent was added into the loading slot; the 96-well plate for testing was taken out from the incubator, and 20 μL CellTiter-Glo luminescent reagent was added into each well. After standing for 10 minutes followed by mixing well, the test was conducted by using a multi-functional microplate reader (Envision, Perkin Elmer).

[2] = test system: hepatoma organoids (samples GL-003, GL-004); assay: Effects of different concentrations of factors in the culture medium on proliferation of hepatoma organoids (Example 2); settings: added to HC-3 medium lacking that factor; organoid diameter ratio to Blank Control after 10 days, FIGS. 1A-1K
Protocol: Primary liver cancer cells were obtained from intraoperative tissue samples (Nos. GL-003, GL-004) in accordance with the method described in Section (2), Example 1, and the organoids were cultured using the culture medium formulations as shown in Table 2 below.
When using the culture medium of Formulation 1, to a 96-well plate inoculated with organoids was added the prepared B27 in addition to the medium of Formulation 1, with 200 μL per well, such that the final concentrations of B27 were 1:25, 1:50 and 1:100, respectively; a well of Blank Control (BC) was set using the medium of Formulation 1. The final concentrations of other factors added in this series of culture mediums were the same as those in HC-3 culture medium. The experiments of Formulations 1-11 below were also conducted in the same way and will not be described in details.
When using the culture medium of Formulation 2, to a 96-well plate inoculated with organoids was added the prepared HGF in addition to the medium of Formulation 2, with 200 μL per well, such that the final concentrations of HGF were 1 ng/ml, 5 ng/mL and 25 ng/mL, respectively; a well of Blank Control (BC) was set using the medium of Formulation 2.
When using the culture medium of Formulation 3, to a 96-well plate inoculated with organoids was added the prepared ITS cell culture additive in addition to the medium of Formulation 3, with 200 μL per well, such that the final concentrations of ITS cell culture additive were 1:300, 1:100 and 1:30, respectively; a well of Blank Control (BC) was set using the medium of Formulation 3.
When using the culture medium of Formulation 4, to a 96-well plate inoculated with organoids was added the prepared Y27632 in addition to the medium of Formulation 4, with 200 μL per well, such that the final concentrations of Y27632 were 3 μM, 10 μM and 30 μM, respectively; a well of Blank Control (BC) was set using the medium of Formulation 4.
When using the culture medium of Formulation 6, to a 96-well plate inoculated with organoids was added the prepared NRG1 in addition to the medium of Formulation 6, with 200 μL per well, such that the final concentrations of NRG1 were 1 ng/ml, 5 ng/ml and 25 ng/ml, respectively; a well of Blank Control (BC) was set using the medium of Formulation 6.
When using the culture medium of Formulation 7, to a 96-well plate inoculated with organoids was added the prepared insulin in addition to the medium of Formulation 7, with 200 µL per well, such that the final concentrations of insulin were 1 μg/mL, 3 μg/mL and 10 μg/mL, respectively; a well of Blank Control (BC) was set using the medium of Formulation 7.
When using the culture medium of Formulation 8, to a 96-well plate inoculated with organoids was added the prepared EGF in addition to the medium of Formulation 8, with 200 μL per well, such that the final concentrations of EGF were 2 ng/ml, 6 ng/ml and 18 ng/ml, respectively; a well of Blank Control (BC) was set using the medium of Formulation 8.
When using the culture medium of Formulation 9, to a 96-well plate inoculated with organoids was added the prepared GlutaMAX in addition to the medium of Formulation 9, with 200 μL per well, such that the final concentrations of GlutaMAX were 1:300, 1:100 and 1:30, respectively; a well of Blank Control (BC) was set using the medium of Formulation 9. […]

[3] = test system: hepatoma organoids isolated from liver cancer tissue; assay: Effects of medium additives on proliferation of hepatoma organoids (Example 1); settings: additive in basic medium at the final concentration; organoid diameters after 7 days compared with Basic Medium
Protocol: First, a basic medium containing initial medium was prepared. […] In this embodiment, the formulation of the basic medium is: DMEM/F12 medium (purchased from Corning)+100 μg/mL Primocin (purchased from InvivoGen, 0.2% (v/v), commercial product has a concentration of 50 mg/ml).
Different types of additives (see Table 1) were added to the basic medium to prepare culture mediums for hepatoma organoid with different components.
Tissue samples (intraoperative) of liver cancer solid tumor were obtained from patients by professional medical practitioner of professional medical institutions, and all patients have signed the informed consent. Intraoperative samples having the size of 0.25 cm3 were stored and transported using commercial tissue preservation solution (manufacturer: Miltenyi Biotec).
• 3.1. Tissue samples were transferred from the ultra-clean workbench to a culture dish, and the tissue with blood was removed. The tissue samples were rinsed twice with basic medium, and then were transferred to another culture dish and mechanically cut with a sterile scalpel into tissue blocks of 1×1×1 mm3 in size. • 3.2. The cut intraoperative tissues were aspirated into a 15 mL centrifuge tube, to which 5 mL of basic medium was added, fully mixed, and then centrifuged at 1500 rpm for 4 minutes. • 3.3. The supernatant was discarded, and the resultant was added with 1:3 mixture of basic medium and tissue digestion solution (the amount of tissue digestion solution added was about 10 mL tissue digestion solution for 1 g of tumor tissue). The samples were marked with names and numbers, sealed with sealing film, and then digested in a shaker (Zhichu Instrument ZQLY-180N) at 37° C., 300 rpm. The completion of digestion was determined via observation every 30 minutes, based on the existing of visible particles or not. • 3.4. After the digestion was completed, undigested tissue mass was filtered out through a […] filter mash. The tissue mass on the filter mash was rinsed into the centrifuge tube with basic medium to reduce cell loss. The resultant was centrifuged at 25° C., 1500 rpm for 4 minutes. • 3.5. […] If there were blood cells, 8 mL blood cell lysate (purchased from Sigma) was added in the resultant and fully mixed, lysed at 4° C. for 20 minutes, with inverting and mixing once during the process. The resultant was centrifuged at 25° C., 1500 rpm for 4 minutes. • 3.6. The supernatant was discarded and 2 mL basic medium was added to resuspend the cells for reserve.
• 4.1 Microscopic observation: a small amount of resuspended cells were plated in a culture dish, and the density and morphology of cancer cells were observed under a microscope (CNOPTEC, BDS400); • 4.2 Viable cell counting: 12 μL of the resuspended cell suspension was fully mixed with 12 μL of trypan blue staining solution (Manufacturer: Sangon Biotech (Shanghai) Co., Ltd.), and then 20 μL of the mixture was added into a cell counting plate (Manufacturer: Countstar, specifications: 50 pieces/box).
The primary liver cancer cells obtained in the above steps were resuspended with pre-cooled DMEM/F12 and counted. The cell density was diluted to 5-10×10^6 cells/mL and 400 μL of the diluted cell suspension was added with an equal volume of Matrigel matrix gel (Corning) and mixed gently and well. Then, the mixture was inoculated at 5 μL/well onto a 96-well plate. The inoculated plate was placed into an incubator for 30 minutes until Matrigel is completely coagulated. Then, the culture mediums as shown in Table 1 that have been come to room temperature in advance were added, respectively, and the culture mediums were renewed every three days for expansion and cultivation. After 7 days, the cultured organoids were photographed and the diameters of the organoids were measured and compiled, so as to compare the promoting effects of various factors on the proliferation of hepatoma organoids. As the experimental control, the basic medium without any additives was used.

Row | Compound | growth of organoids after drug treatment (photos) [1] | inhibitory effect on the growth of hepatoma organoids (drug inhibition rate) [1] | preferable amount in the culture medium for promoting organoid proliferation [2] | Level of promoting proliferation [3]
1 | CC(C)C[C@H](NC(=O)[C@H](Cc1ccccc1)NC(=O)c1cnccn1)B(O)O [Bortezomib] | significantly inhibited | strong inhibitory effects |  | 
2 | C[C@@H]1C[C@H]2[C@@H]3CCC4=CC(=O)C=C[C@]4(C)[C@@]3(F)[C@@H](O)C[C@]2(C)[C@@]1(O)C(=O)CO [dexamethasone] |  |  | 0.1 to 1 µM | 
3 | Oc1ccc(-c2nc(-c3ccncc3)c(-c3ccc(F)cc3)[nH]2)cc1 [SB202190] |  |  |  | −
4 | epidermal growth factor, EGF: growth factor medium additive, supplier R&D (NSDSECPLSHDGYCLHDGVCMYIEALDKYACNCVVGYIGERCQYRDLKWWELR; Epidermal growth factor; UniProt P01133 971-1023, looked up) |  |  | 2 to 18 ng/mL | +
5 | basic fibroblast growth factor, bFGF: growth factor medium additive, supplier R&D |  |  |  | −
6 | COc1cccc2c1C(=O)c1c(O)c3c(c(O)c1C2=O)C[C@@](O)(C(=O)CO)C[C@@H]3O[C@H]1C[C@H](N)[C@H](O)[C@H](C)O1 [Doxorubicin] |  | no inhibitory effect |  | 
7 | hepatocyte growth factor, HGF: growth factor medium additive, supplier R&D |  |  |  | +
8 | C[C@@H](N)[C@H]1CC[C@H](C(=O)Nc2ccncc2)CC1 [Compound Y27632] |  |  | 3 to 30 µM | +
9 | Cc1cccc(-c2nn(C(=S)Nc3ccccc3)cc2-c2ccnc3ccccc23)n1 [Compound A8301] |  |  |  | −
10 | CN1C(=O)C(c2c(F)cccc2F)N(C)c2nc(Nc3ccc(S(N)(=O)=O)cc3)ncc21 (stereo not shown) [Compound 1, 4-((7-(2,6-Difluorophenyl)-5,8-dimethyl-6-oxo-5,6,7,8-tetrahydropteridin-2-yl)amino)benzsulfamide] |  |  | 2.5 to 10 µM | +
11 | Cc1c[nH]c(-c2cnc(NCCNc3ccc(C#N)cn3)nc2-c2ccc(Cl)cc2Cl)n1 [CHIR99021] |  |  |  | −
12 | insulin: medium additive, supplier Peprotech |  |  | 1000 to 10000 ng/mL | +
13 | CC[C@@]1(O)C[C@H](O[C@H]2C[C@H](N(C)C)[C@H](O[C@H]3C[C@H](O)[C@H](O[C@H]4CCC(=O)[C@H](C)O4)[C@H](C)O3)[C@H](C)O2)c2c(cc3c(c2O)C(=O)c2c(O)cccc2C3=O)[C@H]1C(=O)OC [Aclarubicin] | significantly inhibited | varied significantly |  | 
